Among the test systems are IGROV-1; M14; SNB-19; A549; HT-29; HOP-92; SK-MEL-5; T47D; TK-10; RXF 393; BT-549; SK-MEL-28; NCI-H522; UACC-62; OVCAR-4; SF-268; NCI/ADR-RES; SK-OV-3; NCI-H460; UO-31.
Common to all, as to experiment: NCI-60 cell line screen, 48 h

We go through seven compounds from ChEMBL document CHEMBL1201862, “PubChem BioAssay data set” (2004).

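1) Cells in 96-well plates. 2) Compound, 48 h, 5 concentrations. 3) Linear interpolation between surrounding doses. 4) Unreached endpoint = highest concentration. GI50 marks 50% less growth.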 Calls of active or inactive are those of the source. Cut-off read from the data, not from the text of the source: active = GI50 up to about 1.1 µM and inactive = higher.

Turning to `O=C(O)CCC(NC(=O)c1ccc(Oc2nc3ccccc3nc2C(=O)O)cc1)C(=O)O` (stereo not given), the GI50 in the test with IGROV-1, with M14, with SNB-19, in the test on A549, in the test on HT-29 and with HOP-92 was > 100 µM (inactive) throughout. Besides, the GI50 in the test on SK-MEL-5 was > 100 µM (inactive); in the test with T47D, > 100 µM (inactive); with TK-10, > 100 µM (inactive); in the test with RXF 393, > 100 µM (inactive); in the test with BT-549, 33.3 µM (inactive); in the test on SK-MEL-28, > 100 µM (inactive). Moreover, the GI50 in the test on NCI-H522, in the test with UACC-62, with OVCAR-4, in the test on SF-268, in the test on NCI/ADR-RES and in the test on SK-OV-3 was > 100 µM (inactive) each time. Further, the GI50 in the test with NCI-H460 and in the test with UO-31 was > 100 µM (inactive) throughout.

As to `Cc1c2c(Cl)c3c(c(Cl)c2c(C)c2c(Cl)c4c(c(Cl)c12)C(c1ccccc1)(c1ccccc1)C4(c1ccccc1)c1ccccc1)C(c1ccccc1)(c1ccccc1)C3(c1ccccc1)c1ccccc1`, the GI50 with IGROV-1, with M14, in the test on SNB-19, in the test with A549, with HT-29 and in the test on HOP-92 was > 100 µM (inactive) throughout. Further, the GI50 in the test on SK-MEL-5, in the test on T47D, in the test on TK-10, in the test on RXF 393, with BT-549 and in the test on SK-MEL-28 was > 100 µM (inactive) each time. In addition, the GI50 with NCI-H522, in the test on UACC-62, with OVCAR-4, in the test with SF-268, with NCI/ADR-RES and with SK-OV-3 was > 100 µM (inactive) in each case. The GI50 in the test on NCI-H460 and in the test on UO-31 was > 100 µM (inactive) each time.

For the compound `CN(C)CCNc1nc2c(c(=O)n(C)c(=O)n2C)n1C`, the GI50 with IGROV-1, in the test with M14, in the test with SNB-19, with A549, in the test on HT-29 and in the test with HOP-92 was > 100 µM (inactive) in each case. For the same compound, the GI50 in the test with SK-MEL-5, with T47D, in the test with TK-10, with RXF 393, in the test with BT-549 and in the test on SK-MEL-28 was > 100 µM (inactive) in each case. Also, the GI50 in the test on NCI-H522, in the test with UACC-62, in the test with OVCAR-4, in the test on SF-268, in the test with NCI/ADR-RES and in the test on SK-OV-3 was > 100 µM (inactive) throughout. Moreover, the GI50 in the test with NCI-H460 and in the test with UO-31 was > 100 µM (inactive) throughout.

Turning to `CC(=O)OCOC(=O)CN(CC(=O)OCOC(C)=O)Cc1cc2c(cc1OC(C)=O)Oc1cc(OC(C)=O)c(CN(CC(=O)OCOC(C)=O)CC(=O)OCOC(C)=O)cc1C21OC(=O)c2ccccc21`, the GI50 in the test with IGROV-1 is 0.277 µM (active); in the test on M14, 1.16 µM (inactive); in the test on SNB-19, 1.27 µM (inactive); in the test with A549 it was 0.953 µM (active); in the test with HT-29 it was 0.483 µM (active); in the test on HOP-92, 1.05 µM (active). The GI50 with SK-MEL-5 is 0.953 µM (active); in the test with T47D, 1.4 µM (inactive); in the test with TK-10 it was 0.741 µM (active); in the test with RXF 393, 0.34 µM (active); with BT-549 it was 0.265 µM (active); in the test on SK-MEL-28, 0.484 µM (active). In addition, the GI50 with NCI-H522 is 0.237 µM (active); with UACC-62, 0.232 µM (active); with OVCAR-4, 0.998 µM (active); in the test with SF-268, 1.27 µM (inactive); in the test with NCI/ADR-RES it was 11 µM (inactive); in the test on SK-OV-3, 2.54 µM (inactive). Besides, the GI50 in the test with NCI-H460 is 0.366 µM (active); in the test with UO-31, 1.82 µM (inactive).

As for `O=C(O)C1C2C=CC(O2)C1C(=O)NCc1cccnc1` (stereo not given), the GI50 with IGROV-1, in the test with M14, with SNB-19, in the test on A549, in the test with HT-29 and in the test with HOP-92 was > 100 µM (inactive) in each case. Besides, the GI50 in the test on SK-MEL-5, in the test with T47D, in the test on TK-10, with RXF 393, in the test on BT-549 and with SK-MEL-28 was > 100 µM (inactive) in each case. Also, the GI50 in the test with NCI-H522, in the test with UACC-62, in the test with OVCAR-4, in the test with SF-268, in the test on NCI/ADR-RES and with SK-OV-3 was > 100 µM (inactive) each time. In addition, the GI50 in the test on NCI-H460 and in the test with UO-31 was > 100 µM (inactive) each time.

`O=C(O)c1cc(=O)c2c(OCC(O)COc3cccc4oc(C(=O)O)cc(=O)c34)cccc2o1`: the GI50 in the test with IGROV-1 is > 60.5 µM (inactive); in the test with M14, > 88.1 µM (inactive); with SNB-19, > 100 µM (inactive); in the test with A549, > 84.3 µM (inactive); in the test with HT-29 it was > 75.7 µM (inactive); in the test with HOP-92, > 63.8 µM (inactive). In addition, the GI50 in the test on SK-MEL-5 was > 65.9 µM (inactive); with T47D it was > 100 µM (inactive); in the test with TK-10, > 100 µM (inactive); in the test with RXF 393, > 100 µM (inactive); in the test on BT-549 it was > 100 µM (inactive); in the test on SK-MEL-28, > 100 µM (inactive). Further, the GI50 with NCI-H522 is > 56.8 µM (inactive); with UACC-62 it was > 68.1 µM (inactive); in the test with OVCAR-4 it was > 100 µM (inactive); with SF-268, > 100 µM (inactive); with NCI/ADR-RES, > 100 µM (inactive); with SK-OV-3 it was > 72.9 µM (inactive). For the same compound, the GI50 in the test with NCI-H460 and in the test on UO-31 was > 100 µM (inactive) each time.

As for `Cc1ccc(C(=O)C#Cc2cn(C3CC(O)C(CO)O3)c(=O)[nH]c2=O)cc1` (stereo not given), the GI50 with IGROV-1 is > 100 µM (inactive); in the test with M14, 53.1 µM (inactive); in the test with SNB-19, > 100 µM (inactive); in the test on A549, > 100 µM (inactive); in the test on HT-29, > 100 µM (inactive); in the test with HOP-92, 32.6 µM (inactive). For the same compound, the GI50 in the test on SK-MEL-5 is > 100 µM (inactive); with T47D, 23.6 µM (inactive); in the test with TK-10, > 100 µM (inactive); in the test with RXF 393 it was > 100 µM (inactive); in the test with BT-549 it was > 100 µM (inactive); with SK-MEL-28, > 100 µM (inactive). The GI50 in the test with NCI-H522 was 11.5 µM (inactive); with UACC-62 it was > 100 µM (inactive); with OVCAR-4 it was 95.9 µM (inactive); in the test on SF-268 it was > 100 µM (inactive); in the test with NCI/ADR-RES, > 100 µM (inactive); with SK-OV-3 it was > 100 µM (inactive). Also, the GI50 in the test with NCI-H460 and with UO-31 was > 100 µM (inactive) throughout.
